System: MV-4-11 cells
Experiment: Gene expression microarray analysis (Affymetrix PrimeView) and GSEA
Type: cell-based, human
Design: RFU PODN (11730768_x_at) / Fold change /veh PODN (11730768_x_at) / RFU LINC00158 (11744669_a_at) / Fold change /veh LINC00158 (11744669_a_at) / RFU DUSP10 (11751237_a_at) / Fold change /veh DUSP10 (11751237_a_at) / RFU ID3 (11757404_x_at) / Fold change /veh ID3 (11757404_x_at) / RFU PLEKHG5 (11737974_s_at) / Fold change /veh PLEKHG5 (11737974_s_at) / RFU LRRC4B (11730491_at) / Fold change /veh LRRC4B (11730491_at) / RFU GIMAP4 (11747438_a_at) / Fold change /veh GIMAP4 (11747438_a_at) / RFU KRT8 (11758183_x_at) / Fold change /veh KRT8 (11758183_x_at) / RFU CNN1 (11734310_a_at) / Fold change /veh CNN1 (11734310_a_at) / RFU VPS37D (11726825_at) / Fold change /veh VPS37D (11726825_at) / RFU C10orf10 (11716522_x_at) / Fold change /veh C10orf10 (11716522_x_at) / RFU KIR2DL2 /// KIR2DL4 /// KIR2DL5A /// KIR2DL5B /// KIR2DS1 /// KIR2DS2 /// KIR2DS3 /// KIR2DS4 /// KIR3DL3 /// KIR3DL3 /// KIR3DS1 (11738374_at) / Fold change /veh KIR2DL2 /// KIR2DL4 /// KIR2DL5A /// KIR2DL5B /// KIR2DS1 /// KIR2DS2 /// KIR2DS3 /// KIR2DS4 /// KIR3DL3 /// KIR3DL3 /// KIR3DS1 (11738374_at) / RFU C1QL1 (11718748_at) / Fold change /veh C1QL1 (11718748_at) / RFU TMPRSS4 (11747572_a_at) / Fold change /veh TMPRSS4 (11747572_a_at) / RFU HAMP (11756126_x_at) / Fold change /veh HAMP (11756126_x_at) / RFU RNFT2 (11725882_a_at) / Fold change /veh RNFT2 (11725882_a_at) / RFU NR4A2 (11747474_a_at) / Fold change /veh NR4A2 (11747474_a_at) / RFU ABCC12 (11746883_a_at) / Fold change /veh ABCC12 (11746883_a_at) / RFU TMEM136 (11760407_x_at) / Fold change /veh TMEM136 (11760407_x_at) / RFU CLDN22 /// WWC2 (11732394_at) / Fold change /veh CLDN22 /// WWC2 (11732394_at) / RFU HLA-DPB1 (11760878_x_at) / Fold change /veh HLA-DPB1 (11760878_x_at) / RFU SPINT1 (11716480_a_at) / Fold change /veh SPINT1 (11716480_a_at) / RFU GAP43 (11754022_s_at) / Fold change /veh GAP43 (11754022_s_at) / RFU A4GNT (11735810_at) / Fold change /veh A4GNT (11735810_at) / RFU PRB3 (11715151_x_at) / Fold change /veh PRB3 (11715151_x_at) / RFU TUBB4B (11761932_at) / Fold change /veh TUBB4B (11761932_at) / RFU CAPN14 (11732068_a_at) / Fold change /veh CAPN14 (11732068_a_at) / RFU TMCC2 (11721928_a_at) / Fold change /veh TMCC2 (11721928_a_at) / RFU IRGQ (11745062_a_at) / Fold change /veh IRGQ (11745062_a_at) / RFU FAM174B (11720279_a_at) / Fold change /veh FAM174B (11720279_a_at) / RFU TMPRSS4 (11748680_a_at) / Fold change /veh TMPRSS4 (11748680_a_at) / RFU FAM212B (11763350_a_at) / Fold change /veh FAM212B (11763350_a_at) / RFU PLEKHG5 (11743358_a_at) / Fold change /veh PLEKHG5 (11743358_a_at) / RFU ZSCAN30 (11745921_a_at) / Fold change /veh ZSCAN30 (11745921_a_at) / RFU CMKLR1 (11741424_a_at) / Fold change /veh CMKLR1 (11741424_a_at) / RFU LOC101060620 /// MAPK8IP1 (11723275_at) / Fold change /veh LOC101060620 /// MAPK8IP1 (11723275_at) / RFU SPTSSB (11747773_x_at) / Fold change /veh SPTSSB (11747773_x_at) / RFU PRSS12 (11739890_at) / Fold change /veh PRSS12 (11739890_at) / RFU BIN1 (11741810_x_at) / Fold change /veh BIN1 (11741810_x_at) / RFU WNT11 (11732464_a_at) / Fold change /veh WNT11 (11732464_a_at) / RFU C10orf10 (11716521_a_at) / Fold change /veh C10orf10 (11716521_a_at) / RFU C5orf56 (11738089_at) / Fold change /veh C5orf56 (11738089_at) / RFU CYB561 (11721691_x_at) / Fold change /veh CYB561 (11721691_x_at) / RFU ANKRD19P (11752326_a_at) / Fold change /veh ANKRD19P (11752326_a_at) / RFU OR2T12 /// OR2T33 /// OR2T8 (11738714_s_at) / Fold change /veh OR2T12 /// OR2T33 /// OR2T8 (11738714_s_at) / RFU VCAN (11748164_a_at) / Fold change /veh VCAN (11748164_a_at) / RFU JSRP1 (11732532_at) / Fold change /veh JSRP1 (11732532_at) / RFU KRTAP10-11 (11738290_x_at) / Fold change /veh KRTAP10-11 (11738290_x_at) / RFU MYO3A (11730013_a_at) / Fold change /veh MYO3A (11730013_a_at) / RFU EBF3 (11725865_a_at) / Fold change /veh EBF3 (11725865_a_at) / RFU CAMK2N1 (11719241_x_at) / Fold change /veh CAMK2N1 (11719241_x_at) / RFU C5orf56 (11738088_a_at) / Fold change /veh C5orf56 (11738088_a_at) / RFU OLFML3 (11715873_a_at) / Fold change /veh OLFML3 (11715873_a_at) / RFU LOC100653217 /// NTM (11731650_a_at) / Fold change /veh LOC100653217 /// NTM (11731650_a_at) / RFU MAPK11 (11762145_a_at) / Fold change /veh MAPK11 (11762145_a_at) / RFU FIZ1 (11724087_x_at) / Fold change /veh FIZ1 (11724087_x_at) / RFU OASL (11726364_x_at) / Fold change /veh OASL (11726364_x_at) / RFU SOX15 (11748057_x_at) / Fold change /veh SOX15 (11748057_x_at) / RFU CD79A (11719716_a_at) / Fold change /veh CD79A (11719716_a_at) / RFU HIST1H1D (11736915_at) / Fold change /veh HIST1H1D (11736915_at) / RFU CASKIN2 (11723855_a_at) / Fold change /veh CASKIN2 (11723855_a_at) / RFU LOC730098 (11760151_x_at) / Fold change /veh LOC730098 (11760151_x_at) / RFU OR4N2 (11742367_at) / Fold change /veh OR4N2 (11742367_at) / RFU PRRT2 (11749266_a_at) / Fold change /veh PRRT2 (11749266_a_at) / RFU SNX32 (11753110_a_at) / Fold change /veh SNX32 (11753110_a_at) / RFU CDHR5 (11726645_a_at) / Fold change /veh CDHR5 (11726645_a_at) / RFU RCAN1 (11760418_a_at) / Fold change /veh RCAN1 (11760418_a_at) / RFU FAM167A (11723789_a_at) / Fold change /veh FAM167A (11723789_a_at) / RFU FAM26E (11764081_at) / Fold change /veh FAM26E (11764081_at) / RFU ISYNA1 (11749810_s_at) / Fold change /veh ISYNA1 (11749810_s_at) / RFU ACY1 (11761880_at) / Fold change /veh ACY1 (11761880_at) / RFU 11764098_at / Fold change /veh 11764098_at / RFU SAMD14 (11745864_x_at) / Fold change /veh SAMD14 (11745864_x_at) / RFU NPB (11741838_a_at) / Fold change /veh NPB (11741838_a_at) / RFU TMPRSS6 (11731388_a_at) / Fold change /veh TMPRSS6 (11731388_a_at) / RFU KRTAP10-2 (11738614_at) / Fold change /veh KRTAP10-2 (11738614_at) / RFU ARHGAP8 /// PRR5-ARHGAP8 (11727945_x_at) / Fold change /veh ARHGAP8 /// PRR5-ARHGAP8 (11727945_x_at) / RFU KRTAP5-7 /// NADSYN1 (11734609_at) / Fold change /veh KRTAP5-7 /// NADSYN1 (11734609_at) / RFU RASL12 (11751679_a_at) / Fold change /veh RASL12 (11751679_a_at) / RFU CDKN2B (11736163_a_at) / Fold change /veh CDKN2B (11736163_a_at) / RFU PRF1 (11729649_at) / Fold change /veh PRF1 (11729649_at) / RFU, ZNF638 /// ZNF638-IT1 / Fold change vs veh, ZNF638 /// ZNF638-IT1 / RFU, PANK3 / Fold change vs veh, PANK3 / RFU, SH3YL1 / Fold change vs veh, SH3YL1 / RFU, ZEB2 / Fold change vs veh, ZEB2 / RFU, NRIP1 / Fold change vs veh, NRIP1 / RFU, PTTG1IP / Fold change vs veh, PTTG1IP / RFU, CAPN2 / Fold change vs veh, CAPN2 / RFU, MED14 / Fold change vs veh, MED14 / RFU, SNORA58 / Fold change vs veh, SNORA58 / RFU, C1orf63 / Fold change vs veh, C1orf63 / RFU, LRRFIP1 / Fold change vs veh, LRRFIP1 / RFU, NDUFAF7 / Fold change vs veh, NDUFAF7 / RFU, SLC12A2 / Fold change vs veh, SLC12A2 / RFU, IBTK / Fold change vs veh, IBTK / RFU, ESF1 / Fold change vs veh, ESF1 / Fold change vs veh, TMEM50B / RFU, TAOK1 / Fold change vs veh, TAOK1 / RFU, ACBD3 / Fold change vs veh, ACBD3 / RFU, TMA16 / Fold change vs veh, TMA16 / RFU, RWDD3 / Fold change vs veh, RWDD3 / RFU, BCAT1 / Fold change vs veh, BCAT1 / RFU, EDEM3 / Fold change vs veh, EDEM3 / RFU, TMEM33 / Fold change vs veh, TMEM33 / RFU, WDR75 / Fold change vs veh, WDR75 / RFU, AHCTF1 / Fold change vs veh, AHCTF1 / RFU, TFRC / Fold change vs veh, TFRC / RFU, ZDHHC17 / Fold change vs veh, ZDHHC17 / RFU, NOM1 / Fold change vs veh, NOM1 / RFU, ARL8B / Fold change vs veh, ARL8B / RFU, ZBTB11 / Fold change vs veh, ZBTB11 / RFU, TAMM41 / Fold change vs veh, TAMM41 / RFU, KIAA1704 /// LOC100996395 / Fold change vs veh, KIAA1704 /// LOC100996395 / RFU, ING1 / Fold change vs veh, ING1 / RFU, TRMT61B / Fold change vs veh, TRMT61B / RFU, FUBP3 / Fold change vs veh, FUBP3 / RFU, TP53 / Fold change vs veh, TP53 / RFU, TNKS2 / Fold change vs veh, TNKS2 / RFU, ZFP14 / Fold change vs veh, ZFP14 / RFU, ACTR2 / Fold change vs veh, ACTR2 / RFU, PPP3R1 / Fold change vs veh, PPP3R1 / RFU, PIK3R1 / Fold change vs veh, PIK3R1 / RFU, HNRNPA1 / Fold change vs veh, HNRNPA1 / RFU, RNF170 / Fold change vs veh, RNF170 / RFU, ZNF28 / Fold change vs veh, ZNF28 / RFU, RNGTT / Fold change vs veh, RNGTT / RFU, OGT / Fold change vs veh, OGT / RFU, BRD1 / Fold change vs veh, BRD1 / RFU, MARS / Fold change vs veh, MARS / RFU, ZNF655 / Fold change vs veh, ZNF655 / RFU, FAHD1 / Fold change vs veh, FAHD1 / RFU, BDP1 / Fold change vs veh, BDP1 / RFU, LRRCC1 / Fold change vs veh, LRRCC1 / RFU, ARID1A / Fold change vs veh, ARID1A / RFU, ZNF146 / Fold change vs veh, ZNF146 / RFU, ZNF330 / Fold change vs veh, ZNF330 / RFU, GPN3 / Fold change vs veh, GPN3 / RFU, C9orf123 / Fold change vs veh, C9orf123 / RFU, N4BP2L2 / Fold change vs veh, N4BP2L2 / RFU, ARFIP1 / Fold change vs veh, ARFIP1 / RFU, FAM179B / Fold change vs veh, FAM179B / RFU, BCL10 / Fold change vs veh, BCL10 / RFU, UHRF1BP1L / Fold change vs veh, UHRF1BP1L / RFU, BET1 / Fold change vs veh, BET1 / RFU, CNOT2 / Fold change vs veh, CNOT2 / RFU, ZNF268 / Fold change vs veh, ZNF268 / Fold change vs veh, ZNF507 / RFU, DGCR2 / Fold change vs veh, DGCR2 / RFU, WDSUB1 / Fold change vs veh, WDSUB1 / Fold change vs veh, HSP90B1 /// MIR3652 / RFU, ADSS / Fold change vs veh, ADSS / RFU, GK / Fold change vs veh, GK / RFU, ZNF148 / Fold change vs veh, ZNF148 / RFU, TAF9 / Fold change vs veh, TAF9 / RFU, SLC1A5 / Fold change vs veh, SLC1A5 / RFU, SLMO2 / Fold change vs veh, SLMO2 / RFU, ABCC4 / Fold change vs veh, ABCC4 / RFU, LOC101060439 /// RAP1B / Fold change vs veh, LOC101060439 /// RAP1B / RFU, RFX7 / Fold change vs veh, RFX7 / RFU, GTPBP10 / Fold change vs veh, GTPBP10 / RFU, CNEP1R1 / Fold change vs veh, CNEP1R1 / RFU, BIVM-ERCC5 /// ERCC5 / Fold change vs veh, BIVM-ERCC5 /// ERCC5 / RFU, ILF3 / Fold change vs veh, ILF3 / RFU 11762660_at / Fold change /veh 11762660_at / RFU VCAN (11757783_s_at) / Fold change /veh VCAN (11757783_s_at) / RFU DDX43 (11728927_at) / Fold change /veh DDX43 (11728927_at) / RFU KRT8 (11758188_x_at) / Fold change /veh KRT8 (11758188_x_at) / RFU NKD1 (11759106_at) / Fold change /veh NKD1 (11759106_at) / RFU SRD5A1 (11742802_a_at) / Fold change /veh SRD5A1 (11742802_a_at) / RFU TPSAB1 /// TPSB2 (11721975_s_at) / Fold change /veh TPSAB1 /// TPSB2 (11721975_s_at) / RFU GSTM3 (11746129_a_at) / Fold change /veh GSTM3 (11746129_a_at) / RFU IL23R (11737362_x_at) / Fold change /veh IL23R (11737362_x_at) / RFU TMEM51 (11727254_a_at) / Fold change /veh TMEM51 (11727254_a_at) / RFU PIWIL2 (11732686_x_at) / Fold change /veh PIWIL2 (11732686_x_at) / RFU ORM1 (11744905_x_at) / Fold change /veh ORM1 (11744905_x_at) / RFU CCDC152 (11743942_at) / Fold change /veh CCDC152 (11743942_at) / RFU ECM1 (11717891_a_at) / Fold change /veh ECM1 (11717891_a_at) / RFU IL23R (11748794_a_at) / Fold change /veh IL23R (11748794_a_at) / RFU TNFAIP8L3 (11732012_x_at) / Fold change /veh TNFAIP8L3 (11732012_x_at) / RFU MBOAT4 (11741988_at) / Fold change /veh MBOAT4 (11741988_at) / RFU 11764193_at / Fold change /veh 11764193_at / RFU TMEM53 (11763286_at) / Fold change /veh TMEM53 (11763286_at) / RFU MAGEB2 (11727129_at) / Fold change /veh MAGEB2 (11727129_at) / RFU TMEM200A (11744735_a_at) / Fold change /veh TMEM200A (11744735_a_at) / RFU CCDC152 (11751479_a_at) / Fold change /veh CCDC152 (11751479_a_at) / RFU FAM211A (11726209_a_at) / Fold change /veh FAM211A (11726209_a_at) / RFU RGS16 (11746705_a_at) / Fold change /veh RGS16 (11746705_a_at) / RFU VCAN (11755009_s_at) / Fold change /veh VCAN (11755009_s_at) / RFU RHOB (11743442_s_at) / Fold change /veh RHOB (11743442_s_at) / RFU RGS16 (11720943_a_at) / Fold change /veh RGS16 (11720943_a_at) / RFU RGS16 (11720944_at) / Fold change /veh RGS16 (11720944_at) / RFU, VPS4B / Fold change vs veh, VPS4B / RFU, CREB1 / Fold change vs veh, CREB1 / RFU, DNAJC13 / Fold change vs veh, DNAJC13 / RFU, GNAQ / Fold change vs veh, GNAQ / RFU, CDK5R1 / Fold change vs veh, CDK5R1 / RFU, ZRANB3 / Fold change vs veh, ZRANB3 / RFU, CUL4A / Fold change vs veh, CUL4A / RFU, CCNY / Fold change vs veh, CCNY / RFU, UFL1 / Fold change vs veh, UFL1 / RFU, COG3 / Fold change vs veh, COG3 / RFU, DIAPH2 / Fold change vs veh, DIAPH2 / RFU, SKA2 / Fold change vs veh, SKA2 / RFU, AFF3 / Fold change vs veh, AFF3 / RFU, LMF1 / Fold change vs veh, LMF1 / RFU, IPO11 / Fold change vs veh, IPO11 / RFU, DFFB / Fold change vs veh, DFFB / RFU, FOXP1 / Fold change vs veh, FOXP1 / RFU, CARD8 / Fold change vs veh, CARD8 / RFU, STRN3 / Fold change vs veh, STRN3 / RFU, ADK / Fold change vs veh, ADK / RFU, RASSF2 / Fold change vs veh, RASSF2 / RFU, WIPF1 / Fold change vs veh, WIPF1 / RFU, LARP1B / Fold change vs veh, LARP1B / RFU, RASA1 / Fold change vs veh, RASA1 / RFU, RB1 / Fold change vs veh, RB1 / RFU, PPFIA1 / Fold change vs veh, PPFIA1 / RFU, MAT2A / Fold change vs veh, MAT2A / RFU, CCT5 / Fold change vs veh, CCT5 / RFU, WDR92 / Fold change vs veh, WDR92 / RFU, CUX1 / Fold change vs veh, CUX1 / RFU, TTC7A / Fold change vs veh, TTC7A / RFU, TMEM135 / Fold change vs veh, TMEM135 / RFU, DEPTOR / Fold change vs veh, DEPTOR / RFU, CPM / Fold change vs veh, CPM / RFU, DNAJB6 / Fold change vs veh, DNAJB6 / RFU, CACNA2D3 / Fold change vs veh, CACNA2D3 / RFU, DTX4 / Fold change vs veh, DTX4 / RFU, TFCP2 / Fold change vs veh, TFCP2 / RFU, GMCL1 /// GMCL1P1 / Fold change vs veh, GMCL1 /// GMCL1P1 / RFU, AEBP2 / Fold change vs veh, AEBP2 / RFU, SNHG1 /// SNORD22 /// SNORD25 /// SNORD26 /// SNORD27 /// SNORD28 /// SNORD29 /// SNORD31 / Fold change vs veh, SNHG1 /// SNORD22 /// SNORD25 /// SNORD26 /// SNORD27 /// SNORD28 /// SNORD29 /// SNORD31 / Fold change (Aza/veh), C12orf56 (ProbeSet 11735607_a_at) / Fold change (ACY-1035/veh), C12orf56 (ProbeSet 11735607_a_at) / Fold change (Aza/veh), FGFR1OP (ProbeSet 11751329_s_at) / Fold change (ACY-1035/veh), FGFR1OP (ProbeSet 11751329_s_at) / Fold change (Aza/veh), VPS36 (ProbeSet 11739960_a_at) / Fold change (ACY-1035/veh), VPS36 (ProbeSet 11739960_a_at) / RFU SYPL1 (11715823_x_at) / Fold change /veh SYPL1 (11715823_x_at) / RFU IGFBP7 (11715501_s_at) / Fold change /veh IGFBP7 (11715501_s_at) / RFU REEP3 (11722064_at) / Fold change /veh REEP3 (11722064_at) / RFU IGLL1 (11728026_x_at) / Fold change /veh IGLL1 (11728026_x_at): dose or concentration left out as unconfirmed
Settings: ProbeSet 11721521_at; LIST B

Nc1ccc(-c2cccs2)cc1NC(=O)c1ccc2c(c1)cc(C1CC1)n2CCN1CCOCC1 [ACY-1035]
Fold change vs veh, ZDHHC17: 0.90
